Series [1] has as its system SKBR3 breast cancer cells. Nature of the series: Release of disulfide-linked fluorophore from EGF or Herceptin conjugates, confocal microscopy. The class given is cell-based. To be noted: fluorophore linked via disulfide to Herceptin or EGF, ED86 at 10-fold higher concentration. Here is the method:
In the middle panels, a non-targeted endosome disruptive peptide (ED86) was added. In the bottom panels, a targeted cholesterol modified endosome disruptive peptide (ED108) was added. […] In conjunction with our previous studies of disulfide-linked colchinol conjugates (see provisional application), these studies provide evidence that targeting of two distinct cell surface entities (e.g., two receptors or a receptor and membrane) with a cytotoxic conjugate and an endosome disruptive peptide can confer a synthetic lethal-type effect against cancer cell lines.

The next series deals with PC3-PSMA cells. Nature of the series: Binding, uptake and co-localization of fluorophore-labeled aptamers (confocal microscopy, flow cytometry). The format is cell-based. To be noted: for internalization by cells: AF488-A9, DY650-E07; for colocalization in endosomes: aptamers combined, co-incubation 1 h. Here is the method:
To create targeted binary cytotoxins that selectively kill PSMA+/EGFR+ prostate cancer cells, the agents both accumulate in the same endosomal compartments.
Panels B-D show fluorescence micrographs of AF488-labled anti-PSMA apamer (Panel B) and a Dy650-labeled anti-EGFR aptamer (Panel C) following co-incubation with PC3-PSMA cells for 1 h. […] The binary agents are designed to selectively kill PSMA+/EGFR+ prostate cancer cells through the mechanism proposed here both accumulate in common endosomal compartments.
In general terms: In flow cytometry, cells or beads pass a laser one at a time.

The test system of series [2] is SKBR3 breast cancer cells.
Procedure: Cellular viability was analyzed by flow cytometry after 72 h.

4 substances from patent US9636419B2, “Targeting multiple receptors on a cell surface for specific cell targeting” (The University of Kansas, priority 2013, dated 2017) can be followed below.

Entries after “also recorded” stand apart in the source; their conditions may differ. Non-standard residues stand in square brackets, D forms with d. *: point of attachment. Cholesteryloxycarbonyl = CC(C)CCC[C@@H](C)[C@H]1CC[C@H]2[C@@H]3CC=C4C[C@@H](OC(=O)*)CC[C@]4(C)[C@H]3CC[C@]12C; mPEG = not defined here; Aib = CC(C)(N)C(=O)O; βAla = NCCC(=O)O

Take “H2N-(Aib)4-(Trp)2-Ala-Trp-Tyr-(Pro)2-Val-Val-CONH2 (H-[Aib][Aib][Aib][Aib]WWAWYPPVV-NH2; SMILES CC(C)[C@H](NC(=O)[C@@H](NC(=O)[C@@H]1CCCN1C(=O)[C@@H]1CCCN1C(=O)[C@H](Cc1ccc(O)cc1)NC(=O)[C@H](Cc1c[nH]c2ccccc12)NC(=O)[C@H](C)NC(=O)[C@H](Cc1c[nH]c2ccccc12)NC(=O)[C@H](Cc1c[nH]c2ccccc12)NC(=O)C(C)(C)NC(=O)C(C)(C)NC(=O)C(C)(C)NC(=O)C(C)(C)N)C(C)C)C(N)=O) [ED86]”: the “release of disulfide-linked fluorophore into cytoplasm” value in series [1] is given as “release was not observed”.

As to “A9: PSMA-binding aptamer, 2′F RNA (GGGACCGAAAAAGACCUGACUUCUAUACUAAGUCUACGUUCCC; 2'-fluoro modified RNA, pattern not given here) [Compound A9]”, in the series with PC3-PSMA cells, the internalization by cells result was “internalized by PC3-PSMA cells” and the colocalization in endosomes entry is recorded as “colocalize in endosomes”.

For the substance “Cholesterol carbamate-(βAla)2-(Glu)2-mPEG-(βAla)4-(Aib)4-(Trp)2-Ala-Trp-Tyr-(Pro)2-Val-Val-CONH2 (Cholesteryloxycarbonyl-[βAla][βAla]EE[mPEG][βAla][βAla][βAla][βAla][Aib][Aib][Aib][Aib]WWAWYPPVV-NH2; reading uncertain) [ED108]”, in series [1], the “release of disulfide-linked fluorophore into cytoplasm” value was “Release of the fluorophore from EGF or Herceptin into the cytosol and nucleus was observed; also recorded: release of a disulfide-linked fluorophore from the antibody Herceptin into the cytoplasm”. Further, the “effect on cytotoxicity of the Herceptin-colchinol methyl ether disulfide conjugate” value in series [2] was “synergistically enhances cytotoxicity”.

Consider “E07: EGFR-binding aptamer, 2′F RNA (GGACGGAUUUAAUCGCCGUAGAAAGCAUGUCAAAGCCGGAACCGUCC; 2'-fluoro modified RNA, pattern not given here) [Compound E07]”, for which, in the series with PC3-PSMA cells, the internalization by cells entry is given as “internalized by PC3-PSMA cells” and the colocalization in endosomes entry was “colocalize in endosomes”.
